Data on 13 compounds can be found in article PMC10424186 (Journal of Medicinal Chemistry, 2023).

Assay [1] deals with T1, AspH (Homo sapiens, UniProt Q12797).
T1 construct: N-terminally His6-tagged AspH315–758; made in house; host or cells: Escherichia coli
T1 sequence (Q12797 315-758): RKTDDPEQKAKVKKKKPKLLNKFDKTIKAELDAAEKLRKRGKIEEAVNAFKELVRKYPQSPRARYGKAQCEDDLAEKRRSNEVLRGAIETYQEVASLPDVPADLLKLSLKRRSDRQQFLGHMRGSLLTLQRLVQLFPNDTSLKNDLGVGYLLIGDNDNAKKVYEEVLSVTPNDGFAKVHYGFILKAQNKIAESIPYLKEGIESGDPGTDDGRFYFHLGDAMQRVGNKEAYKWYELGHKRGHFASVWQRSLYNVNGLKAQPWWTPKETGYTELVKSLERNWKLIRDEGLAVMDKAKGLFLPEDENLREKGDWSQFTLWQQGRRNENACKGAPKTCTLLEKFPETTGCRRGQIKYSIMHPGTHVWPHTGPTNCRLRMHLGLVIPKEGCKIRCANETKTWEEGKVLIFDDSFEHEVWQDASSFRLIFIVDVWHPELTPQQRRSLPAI
The settings on record: cited from earlier work; for IC50 AspH: Supporting Table S1, reported SPE-MS value, ref SI 18.

Assay [2] has as its target T2, KDM4E (Homo sapiens, UniProt B2RXH2).
T2 construct: made in house; host or cells: Escherichia coli
T2 sequence (B2RXH2 1-506): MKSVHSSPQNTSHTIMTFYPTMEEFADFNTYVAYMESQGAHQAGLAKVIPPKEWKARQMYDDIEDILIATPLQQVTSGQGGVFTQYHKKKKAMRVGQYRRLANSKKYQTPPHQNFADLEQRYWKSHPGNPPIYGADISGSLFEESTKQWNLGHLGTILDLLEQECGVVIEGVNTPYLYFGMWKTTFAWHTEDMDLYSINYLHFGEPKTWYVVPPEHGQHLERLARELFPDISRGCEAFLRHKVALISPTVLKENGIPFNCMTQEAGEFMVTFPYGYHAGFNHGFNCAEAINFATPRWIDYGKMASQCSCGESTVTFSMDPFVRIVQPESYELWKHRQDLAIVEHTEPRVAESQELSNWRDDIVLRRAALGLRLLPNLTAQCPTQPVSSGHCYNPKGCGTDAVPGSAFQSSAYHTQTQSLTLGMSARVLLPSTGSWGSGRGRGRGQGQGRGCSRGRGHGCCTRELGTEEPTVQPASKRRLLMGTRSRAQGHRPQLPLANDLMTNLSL
Conditions: cited from earlier work.

In another assay the target is human JMJD5 (Homo sapiens, UniProt Q8N371). As to the kind of experiment: SPE-MS JMJD5 inhibition assay (hydroxylation of RPS6 128–148 peptide). The assay is classed as biochemical. From the text: Synthetic peptides with sequences based on reported human 2OG oxygenase substrates were used in SPE-MS inhibition assays: RPS6, residues 128–148, for JMJD5;[42] HIF-α CODD, residues 558–574, for PHD2;[70] HIF-α CAD, residues 788–822, for FIH;[70] H3_1-15K9me3, histone 3 (H3), residues 1–15 with K9 of H3-bearing three methyl groups at the N^ε-position, K4 of H3 substituted by an alanine residue, and K14 of H3 by an isoleucine residue,[73] for KDM4E; and RPL27A, residues 31–49, for RIOX2 (Mina53).[44] All peptides were prepared as C-terminal amides by GL Biochem (Shanghai) Ltd. A synthetic thioether-linked cyclic peptide, hFX-CP101–119,[48] which was designed based on the reported cellular AspH substrate human coagulation factor X (hFX, residues 101–119; C101 was substituted for a D-alanine residue and C112 for a serine residue),[79] was used as AspH substrate; it was prepared with a C-terminal amide according to literature protocols.[80]
Cosubstrate/cofactor stock solutions [L-ascorbic acid/LAA: 50 mM in MQ-grade water; 2-oxoglutarate/2OG: 10 mM in MQ-grade water; ammonium iron(II) sulfate hexahydrate/FAS/(NH4)2Fe(SO4)2·6H2O: 400 mM in 20 mM HCl diluted to 1 mM in MQ-grade water] were freshly prepared from commercial solids (Sigma-Aldrich) on the day the assays were performed. The JMJD5,[42] PHD2,[70] FIH,[70] KDM4E,[72],[73] RIOX2,[44] and AspH[45] SPE-MS inhibition assays were performed as described in the cited literature, using isolated recombinant human enzymes (His6-thioredoxin-JMJD5,[42] His6-PHD2_181–426,[70] His6-FIH,[70] His6-KDM4E,[72],[73] His6-RIOX2_26–465,[87],[88] and His6-AspH315–758[48],[80]) and synthetic peptide substrates (RPS6_128–148 for JMJD5;[42] HIF-α CODD558–574 for PHD2;[70] HIF-α CAD788–822 for FIH;[70] H3_1–15K9me3 for KDM4E;[73] RPL27A31–49 for RIOX2;[44],[71] and hFX-CP101–119 for AspH;[45],[48] see above). For JMJD5, PHD2, FIH, RIOX2, and AspH, substrate hydroxylation was monitored (+16 Da mass shift), while for the KDM4E substrate, demethylation was monitored (−14 Da mass shift) by SPE-MS.

For assay [3], the target named is T2, KDM4E. The experiment in a line: SPE-MS KDM4E inhibition assay (demethylation of H3 1–15 K9me3). The assay is classed as biochemical. The settings on record: Table 2, 10.0 μM H3 1–15 K9me3, n = 2, mean ± SD. Here is the method:
(§1) H3_1-15K9me3, histone 3 (H3), residues 1–15 with K9 of H3-bearing three methyl groups at the N^ε-position, K4 of H3 substituted by an alanine residue, and K14 of H3 by an isoleucine residue,[73] for KDM4E; and RPL27A, residues 31–49, for RIOX2 (Mina53).[44]
(§2) Cosubstrate/cofactor stock solutions [L-ascorbic acid/LAA: 50 mM in MQ-grade water; 2-oxoglutarate/2OG: 10 mM in MQ-grade water; ammonium iron(II) sulfate hexahydrate/FAS/(NH4)2Fe(SO4)2·6H2O: 400 mM in 20 mM HCl diluted to 1 mM in MQ-grade water] were freshly prepared from commercial solids (Sigma-Aldrich) on the day the assays were performed. The JMJD5,[42] PHD2,[70] FIH,[70] KDM4E,[72],[73] RIOX2,[44] and AspH[45] […] For JMJD5, PHD2, FIH, RIOX2, and AspH, substrate hydroxylation was monitored (+16 Da mass shift), while for the KDM4E substrate, demethylation was monitored (−14 Da mass shift) by SPE-MS.

In the next assay the target is T3, RIOX2 (Homo sapiens, UniProt Q8IUF8).
T3 construct: N-terminally His6-tagged RIOX2_26–465; made in house; host or cells: Escherichia coli
As to the kind of experiment: SPE-MS RIOX2 inhibition assay (RPL27A31–49 hydroxylation). The settings on record: Table 2; His6-RIOX2 26–465 […], 5.0 μM RPL27A31–49; n = 2, mean ± SD. In kind it is biochemical.

Another assay deals with T4, PHD2 (Homo sapiens, UniProt Q9GZT9).
T4 construct: His6-PHD2_181–426; made in house; host or cells: Escherichia coli
As to the kind of experiment: SPE-MS PHD2 inhibition assay (HIF-1α CODD hydroxylation). In kind it is biochemical. Conditions: Table 2; PHD2 181–426 […], 5.0 μM HIF-1α CODD; n = 2, mean ± SD. How it is done: as §1, §2

The target in assay [4] is T1, AspH. As to the kind of experiment: SPE-MS AspH inhibition assay (hFX-CP101–119 hydroxylation). In kind it is biochemical. Conditions: Table 2; His6-AspH315–758 0.05 μM, 1.0 μM hFX-CP101–119; n = 2, mean ± SD. Here is the method:
as §1, §2

In assay [5] the target is T2, KDM4E. Conditions: Supporting Table S1; reported FDH-coupled spectrophotometric assay; ref SI 17; cited from earlier work.
[6] abbreviates: Table 1, JMJD5 […], 2OG 2.0 μM, Fe(II) 2.0 μM, LAA 100 μM, RPS6 128–148 2.0 μM, pH 7.5, 20 °C, n = 3, mean ± SD, read-out: IC50 JMJD5.
[7] abbreviates: isolated recombinant JMJD5, SPE-MS.
Where [8] appears, read: isolated recombinant JMJD5, SPE-MS, approximate values, read-out: IC50 for JMJD5 inhibition.
Where [9] appears, read: Table 2, JMJD5 […], 2OG 2.0 μM, Fe(II) 2.0 μM, LAA 100 μM, RPS6 128–148 2.0 μM, n = 3, mean ± SD, read-out: IC50 JMJD5.
Where [10] appears, read: Supporting Table S1, JMJD5 […], 2OG 2.0 μM, RPS6 128-148 2.0 μM, pH 7.5, 20 °C, n = 3, mean ± SD, read-out: IC50 JMJD5.
[11] abbreviates: supplementary CSV, read-out: IC50 JMJD5.

The structures appear in SMILES notation. Entries after “also recorded” stand apart in the source; their conditions may differ. Like-named read-outs stand apart in the source and are kept apart here.

T4 sequence (Q9GZT9 181-426): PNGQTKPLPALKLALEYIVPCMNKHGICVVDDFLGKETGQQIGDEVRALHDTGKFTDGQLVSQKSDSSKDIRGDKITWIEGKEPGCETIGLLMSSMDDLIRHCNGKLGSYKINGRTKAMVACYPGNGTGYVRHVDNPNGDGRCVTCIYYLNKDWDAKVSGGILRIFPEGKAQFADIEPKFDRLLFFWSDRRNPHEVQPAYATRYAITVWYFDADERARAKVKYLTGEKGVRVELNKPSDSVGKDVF
Sequence of human JMJD5 (Q8N371 whole entry, the tested form may be a part): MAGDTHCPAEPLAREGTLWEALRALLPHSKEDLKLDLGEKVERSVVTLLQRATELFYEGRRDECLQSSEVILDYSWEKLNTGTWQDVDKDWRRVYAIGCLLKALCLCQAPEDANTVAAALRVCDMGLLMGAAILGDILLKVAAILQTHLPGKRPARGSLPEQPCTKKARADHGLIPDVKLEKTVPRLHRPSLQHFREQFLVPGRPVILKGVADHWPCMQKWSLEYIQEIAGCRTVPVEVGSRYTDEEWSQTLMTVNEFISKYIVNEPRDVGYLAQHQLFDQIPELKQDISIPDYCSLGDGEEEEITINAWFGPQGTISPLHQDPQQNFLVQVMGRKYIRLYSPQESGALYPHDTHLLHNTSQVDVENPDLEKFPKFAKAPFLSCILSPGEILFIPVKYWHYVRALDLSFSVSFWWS
T3 sequence (Q8IUF8 26-465): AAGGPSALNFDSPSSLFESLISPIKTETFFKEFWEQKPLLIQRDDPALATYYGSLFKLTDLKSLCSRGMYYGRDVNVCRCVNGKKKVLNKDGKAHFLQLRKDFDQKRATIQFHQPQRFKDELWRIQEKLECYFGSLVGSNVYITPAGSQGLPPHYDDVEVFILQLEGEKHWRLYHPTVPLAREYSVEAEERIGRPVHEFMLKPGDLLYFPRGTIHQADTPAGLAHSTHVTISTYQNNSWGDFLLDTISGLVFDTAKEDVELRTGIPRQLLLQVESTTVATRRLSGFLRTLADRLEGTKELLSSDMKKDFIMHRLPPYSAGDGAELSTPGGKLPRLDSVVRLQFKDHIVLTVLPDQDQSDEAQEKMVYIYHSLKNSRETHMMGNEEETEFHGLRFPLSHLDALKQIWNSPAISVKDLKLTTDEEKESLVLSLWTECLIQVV
Experimental for RIOX2: Cosubstrate/cofactor stock solutions [L-ascorbic acid/LAA: 50 mM in MQ-grade water; 2-oxoglutarate/2OG: 10 mM in MQ-grade water; ammonium iron(II) sulfate hexahydrate/FAS/(NH4)2Fe(SO4)2·6H2O: 400 mM in 20 mM HCl diluted to 1 mM in MQ-grade water] were freshly prepared from commercial solids (Sigma-Aldrich) on the day the assays were performed. […] For JMJD5, PHD2, FIH, RIOX2, and AspH, substrate hydroxylation was monitored (+16 Da mass shift), while for the KDM4E substrate, demethylation was monitored (−14 Da mass shift) by SPE-MS.

For the compound `O=C(O)c1ccnc(C(=O)O)c1C(F)(F)F` [Compound 14, 3-trifluoromethyl-2,4-PDCA], the “AspH inhibition (in words)” value at AspH [1] (isolated recombinant AspH) is given as “does not inhibit”. Besides, on KDM4E [2], the “KDM4E inhibition (in words)” value was “not to inhibit KDM4E”. Also, the half-inhibitory concentration (IC50) at human JMJD5 (setting [6]) and at human JMJD5 (setting [8]) was greater than 50 µM in each case. Besides, the “JMJD5 inhibition (in words)” value at human JMJD5 (setting [7]) was “did not efficiently inhibit JMJD5”.
For the compound `O=C(O)c1cc(C(=O)O)c(C(F)(F)F)cn1` [Compound 16, 5-trifluoromethyl-2,4-PDCA], the “KDM4E inhibition (in words)” value at KDM4E [2] is on record as “not to inhibit KDM4E”. Further, the IC50 on human JMJD5 (setting [6]) and on human JMJD5 (setting [8]) was greater than 50 µM each time. The “JMJD5 inhibition (in words)” value at human JMJD5 (setting [7]) is “did not efficiently inhibit JMJD5; also recorded: does not inhibit JMJD5”.
As for `O=C(O)c1cc(C(=O)O)c(NCCc2ccccc2)cn1` [Compound 20b], the IC50 on KDM4E [3] is 5.9 ± 0.6 µM; on RIOX2, 27.9 ± 6.7 µM; on PHD2, greater than 50 µM; against AspH [4] it was 1.8 ± 0.1 µM; on human JMJD5 (setting [9]), 0.9 ± 0.2 µM.
For `O=C(O)c1cc(C(=O)O)c(NCCCc2ccccc2)cn1` [Compound 20c], in that order: 28.2 ± 4.1 µM, 27.3 ± 6.7 µM, greater than 50 µM, 2.8 ± 0.4 µM and 0.3 ± 0.1 µM.
Turning to `O=C(O)c1cc(C(=O)O)c(NCC2CCCCC2)cn1` [Compound 20f], the concentration for half-maximal inhibition (IC50) against KDM4E [3] is 3.2 ± 0.3 µM; against RIOX2 it was 34 ± 8.5 µM; against PHD2, greater than 50 µM; against AspH [4], 2.6 ± 0.6 µM.
For `COc1ccc(CNc2cnc(C(=O)O)cc2C(=O)O)cc1` [Compound 20h, 5-((4-methoxybenzyl)amino)pyridine-2,4-dicarboxylic acid], in that order: 15.5 ± 1.9 µM, 27.6 ± 7.1 µM, greater than 50 µM and 2 ± 0.4 µM.
For `COc1ccccc1CNc1cnc(C(=O)O)cc1C(=O)O` [Compound 20i, 5-((2-methoxybenzyl)amino)pyridine-2,4-dicarboxylic acid], in that order: 11.3 ± 2.9 µM, greater than 50 µM, greater than 50 µM and 0.9 ± 0.2 µM.
Consider `O=C(O)c1ccc(Nc2c(C(=O)O)ccnc2C(=O)O)cc1` [Compound 22], for which the “IC50 AspH” value at AspH [1] is “inactive”. For the same compound, the figures for the IC50 on human JMJD5 (setting [10]), at human JMJD5 (setting [11]) and on KDM4E [5] were greater than 50 µM, greater than 50 µM and 66 µM, respectively.
In the case of `O=C(O)c1ccnc(C(=O)O)c1Nc1ccc([N+](=O)[O-])cc1` [Compound 23], the “IC50 AspH” value on AspH [1] is “inactive”. In addition, the results for the IC50 at human JMJD5 (setting [10]), on human JMJD5 (setting [11]) and on KDM4E [5] were greater than 50 µM, greater than 50 µM and 95 µM, respectively.
Consider `O=C(O)c1ccccc1Nc1c(C(=O)O)ccnc1C(=O)O` [Compound 24], for which the results for the IC50 at human JMJD5 (setting [10]), on human JMJD5 (setting [11]) and at KDM4E [5] were greater than 50 µM, greater than 50 µM and 166 µM, respectively.
Turning to `Cc1ccccc1Nc1c(C(=O)O)ccnc1C(=O)O` [Compound 26], the IC50 on human JMJD5 (setting [10]) was greater than 50 µM; at human JMJD5 (setting [11]), greater than 50 µM; at KDM4E [5], 41 µM.
`COc1ccccc1Nc1c(C(=O)O)ccnc1C(=O)O` [Compound 27]: the results for the IC50 at human JMJD5 (setting [10]), at human JMJD5 (setting [11]) and on KDM4E [5] were 29.6 ± 4.3 µM, 29.6 ± 4.3 µM and 19 µM, respectively.
As to `CSc1ccccc1Nc1c(C(=O)O)ccnc1C(=O)O` [Compound 28], the figures for the IC50 at human JMJD5 (setting [10]), on human JMJD5 (setting [11]) and on KDM4E [5] were 41.5 ± 2.2 µM, 41.5 ± 2.2 µM and 48 µM, respectively.

What is called IC50 is the concentration that inhibits the measured activity by half.
